In article PMC6364417, “Kinase inhibitor library screening identifies synergistic drug combinations effective in sensitive and resistant melanoma cells” (Journal of Experimental & Clinical Cancer Research : CR, 2019):

Tests used:
Test in all cases: Kinase inhibitor library screening, PrestoBlue cell viability, 1 or 10 μM, 72 h
[1] = system: IGR37-XP cells (Vemurafenib-resistant)
[2] = system: 501Mel-GP cells (Dabrafenib-resistant); settings: 72 h
A375 cells (parental) = system: A375 cells (parental)
501Mel cells (parental) = settings: 72 h
How it was run: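 Two concentrations of every kinase inhibitor were tested on each melanoma line and its resistant counterparts, and cell survival was quantified by PrestoBlue against untreated wells.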

[3] = system: IGR37-GP cells (Dabrafenib-resistant)
[4] = system: A375-XP cells (Vemurafenib-resistant)
[5] = system: 501Mel-XP cells (Vemurafenib-resistant); settings: 72 h
[6] = system: A375-GP cells (Dabrafenib-resistant)
IGR37 cells (parental) = system: IGR37 cells (parental)

CC(C)n1nc(-c2ccc3oc(N)nc3c2)c2c(N)ncnc21 [INK 128]
Cell viability in kinase inhibitor library screening, IGR37 XP, 10μΜ ([1]; IGR37 XP, 10μΜ, 72 h): 6.1%
Cell viability in kinase inhibitor library screening, IGR37 XP, 1μΜ ([1]; IGR37 XP, 1μΜ, 72 h, in %): 27.3
Cell viability in kinase inhibitor library screening, 501Mel GP, 1μΜ ([2]; 501Mel GP, 1μΜ, in %): 17.2
Cell viability in kinase inhibitor library screening, 501Mel GP, 10μΜ ([2]; 501Mel GP, 10μΜ, in %): 6.6
Cell viability in kinase inhibitor library screening, A375 Parental, 10μΜ (A375 cells (parental); A375 Parental, 10μΜ, 72 h): 13.5
Cell viability in kinase inhibitor library screening, A375 Parental, 1μΜ (A375 cells (parental); A375 Parental, 1μΜ, 72 h): 19.9
Cell viability in kinase inhibitor library screening, 501Mel Parental, 1μΜ (501Mel cells (parental); 501Mel Parental, 1μΜ, in %): 15.4
Cell viability in kinase inhibitor library screening, 501Mel Parental, 10μΜ (501Mel cells (parental); 501Mel Parental, 10μΜ, in %): 5.9
Cell viability in kinase inhibitor library screening, IGR37 GP, 10μΜ ([3]; IGR37 GP, 10μΜ, 72 h): 16.8%
Cell viability in kinase inhibitor library screening, IGR37 GP, 1μΜ ([3]; IGR37 GP, 1μΜ, 72 h, in %): 44.7
Cell viability in kinase inhibitor library screening, A375 XP, 1μΜ ([4]; A375 XP, 1μΜ, 72 h): 19.9
Cell viability in kinase inhibitor library screening, A375 XP, 10μΜ ([4]; A375 XP, 10μΜ, 72 h): 12.7
Cell viability in kinase inhibitor library screening, 501Mel XP, 1μΜ ([5]; 501Mel XP, 1μΜ, in %): 11.6
Cell viability in kinase inhibitor library screening, 501Mel XP, 10μΜ ([5]; 501Mel XP, 10μΜ, in %): 2.4
Cell viability in kinase inhibitor library screening, A375 GP, 1μΜ ([6]; A375 GP, 1μΜ, 72 h): 21.6
Cell viability in kinase inhibitor library screening, A375 GP, 10μΜ ([6]; A375 GP, 10μΜ, 72 h): 13.0
Cell viability in kinase inhibitor library screening, IGR37 Parental, 1μΜ (IGR37 cells (parental); IGR37 Parental, 1μΜ, 72 h, in %): 22.4
Cell viability in kinase inhibitor library screening, IGR37 Parental, 10μΜ (IGR37 cells (parental); IGR37 Parental, 10μΜ, 72 h, in %): 13.5

O=C1Nc2ccccc2/C1=C1/Nc2ccccc2C1=O [Indirubin]
viability at 1 µM ([1]; Homo sapiens, IGR-37, 72 h, read-out: cell viability, IGR37 XP, 1μΜ): 95.7%
viability at 10 µM ([1]; Homo sapiens, IGR-37, 72 h, read-out: cell viability, IGR37 XP, 10μΜ): 75.6%
viability at 1 µM ([2]; Homo sapiens, read-out: cell viability, 501Mel GP, 1μΜ): 102%
viability at 10 µM ([2]; Homo sapiens, read-out: cell viability, 501Mel GP, 10μΜ): 91.5%
viability at 1 µM (A375 cells (parental); Homo sapiens, A-375, 72 h, read-out: cell viability, A375 Parental, 1μΜ): 101%
viability at 10 µM (A375 cells (parental); Homo sapiens, A-375, 72 h, read-out: cell viability, A375 Parental, 10μΜ): 95.1%
viability at 1 µM (501Mel cells (parental); Homo sapiens, read-out: cell viability, 501Mel Parental, 1μΜ): 104%
viability at 10 µM (501Mel cells (parental); Homo sapiens, read-out: cell viability, 501Mel Parental, 10μΜ): 101%
viability at 1 µM ([3]; Homo sapiens, IGR-37, 72 h, read-out: cell viability, IGR37 GP, 1μΜ): 94.7%
viability at 10 µM ([3]; Homo sapiens, IGR-37, 72 h, read-out: cell viability, IGR37 GP, 10μΜ): 91.3%
viability at 1 µM ([4]; Homo sapiens, A-375, 72 h, read-out: cell viability, A375 XP, 1μΜ): 102%
viability at 10 µM ([4]; Homo sapiens, A-375, 72 h, read-out: cell viability, A375 XP, 10μΜ): 103%
viability at 1 µM ([5]; Homo sapiens, read-out: cell viability, 501Mel XP, 1μΜ): 88.9%
viability at 10 µM ([5]; Homo sapiens, read-out: cell viability, 501Mel XP, 10μΜ): 70.4%
viability at 1 µM ([6]; Homo sapiens, A-375, 72 h, read-out: cell viability, A375 GP, 1μΜ): 95.3%
viability at 10 µM ([6]; Homo sapiens, A-375, 72 h, read-out: cell viability, A375 GP, 10μΜ): 96.4%
viability at 1 µM (IGR37 cells (parental); Homo sapiens, IGR-37, 72 h, read-out: cell viability, IGR37 Parental, 1μΜ): 100%
viability at 10 µM (IGR37 cells (parental); Homo sapiens, IGR-37, 72 h, read-out: cell viability, IGR37 Parental, 10μΜ): 105%

Nc1nc(Nc2ccc(S(N)(=O)=O)cc2)nn1C(=O)c1c(F)cccc1F [JNJ-7706621]
cell viability (kinase inhibitor library screening) ([1]; IGR37 XP, 1μΜ, 72 h): 106.1%
cell viability (kinase inhibitor library screening) ([1]; IGR37 XP, 10μΜ, 72 h): 2.5%
cell viability (kinase inhibitor library screening) ([2]; 501Mel GP, 1μΜ): 110.0%
cell viability (kinase inhibitor library screening) ([2]; 501Mel GP, 10μΜ): 0.28%
cell viability (kinase inhibitor library screening) (A375 cells (parental); A375 Parental, 10μΜ, 72 h): 5.3%
cell viability (kinase inhibitor library screening) (A375 cells (parental); A375 Parental, 1μΜ, 72 h): 89.1%
cell viability (kinase inhibitor library screening) (501Mel cells (parental); 501Mel Parental, 10μΜ): 0.466%
cell viability (kinase inhibitor library screening) ([3]; IGR37 GP, 1μΜ, 72 h): 99.1%
cell viability (kinase inhibitor library screening) ([3]; IGR37 GP, 10μΜ, 72 h): 18.2%
cell viability (kinase inhibitor library screening) ([4]; A375 XP, 1μΜ, 72 h): 93.1%
cell viability (kinase inhibitor library screening) ([4]; A375 XP, 10μΜ, 72 h): 5.9%
cell viability (kinase inhibitor library screening) ([5]; 501Mel XP, 1μΜ): 97.8%
cell viability (kinase inhibitor library screening) ([5]; 501Mel XP, 10μΜ): -0.273%
cell viability (kinase inhibitor library screening) ([6]; A375 GP, 1μΜ, 72 h): 89.4%
cell viability (kinase inhibitor library screening) ([6]; A375 GP, 10μΜ, 72 h): 3.0%
cell viability (kinase inhibitor library screening) (IGR37 cells (parental); IGR37 Parental, 1μΜ, 72 h): 95.5%
cell viability (kinase inhibitor library screening) (IGR37 cells (parental); IGR37 Parental, 10μΜ, 72 h): 9.4%
